In patent US8252559B2, “Methods and systems for selective fluorination of organic molecules” (The California Institute of Technology, priority 2006, dated 2012):

Assay: in vitro
Conditions: PAMPA; for Papp at 0.5 mg/mL: pig, pH 7.4
Protocol: Effective permeability values (Pe) are calculated by monitoring accumulation of the organic molecule in a cross-membrane compartment. […] M+/M− refers to the fraction of compound that crossed the BBB-mimic membrane as compared to system with no membrane after 16 hour incubation at room temperature. Values are means of three replicates.
Membrane permeability assay. The membrane permeability assays were carried out adapting a described procedure and using 96-well MultiScreen-IP plates from Millipore. Filter plates were rinsed with 70% EtOH and double-distilled water prior to use. BBB-mimic membranes were prepared by coating filter wells with 5 μL porcine brain lipids (PBL, Avanti Polar Lipids) in dodecane (20 mg/mL). Control wells (PBL-free) were primed in the same way but not coated with PBL. Working solutions contained 0.5 mg/mL fluorinated compound in PBS pH 7.4 (5% EtOH). Assembled plates contained 150 μL working solution in the PBL-coated (or PBL-free) well, 300 μL PBS (5% EtOH) in the acceptor well, and were incubated at room temperature and 100% humidity. The change in organic compound concentration in the donor and acceptor wells was monitored over time by HPLC. Membrane permeability values (Pe) were calculated. All measurements were performed in triplicates. The assay was validated by comparing the experimental Pe value for caffeine with that reported in the art.
Ibuprofen has recently shown promising activity against amyloidogenic diseases. Anti-amyloidogenic drugs with high brain permeability are intensively sought after. Compounds 15, 16 and 18 were tested in a membrane permeability assay that mimics the composition of the blood-brain barrier (BBB).

Membrane permeability properties / BBB-crossing potential (in words)	Papp at 0.5 mg/mL [×10⁻⁶ cm/s]	Structure (SMILES)
very good	> 10	COC(=O)C(C)c1ccc(CC(C)(C)F)cc1 (centres unmarked) [Compound 16, 2-[4-(2-Fluoro-2-methyl-propyl)-phenyl]-propionic acid methyl ester]
modest BBB-crossing potential		COC(=O)C(C)c1ccc(CC(C)C)cc1 (centres unmarked) [Compound 12, 2-(4-Isobutyl-phenyl)-propionic acid methyl ester, reference compound]
very good	> 10	COC(=O)C(C)c1ccc(C(F)C(C)C)cc1 (centres unmarked) [Compound 15, 2-[4-(1-Fluoro-2-methyl-propyl)-phenyl]-propionic acid methyl ester]
excellent	> 10	COC(=O)C(C)c1ccc(C(F)C(C)(C)F)cc1 (centres unmarked) [Compound 18, 2-[4-(1,2-Difluoro-2-methyl-propyl)-phenyl]-propionic acid methyl ester]

Structure (SMILES)	Membrane permeability properties / BBB-crossing potential (in words)	Papp at 0.5 mg/mL [×10⁻⁶ cm/s]
Cn1c(=O)c2c(ncn2C)n(C)c1=O [Caffeine, reference compound]		1.24
